In patent US4620014A, “2-furylbutyrolactones and methods for using same” (priority 1983, dated 1986):

System: L5178Y target cells
Assay: MLTC assay of CTL activity, L5178Y target cells
Type: cell-based, mouse
From the text: A mixed lymphocyte tumor culture (MLTC) immunoassay, used to determine the cytotoxic lymphocyte (CTL) activity employs lymphocytes from either immunized (sensitized) mice or DBA/2 tumor dormant state animals in various stages of the tumor dormant state (TDS). The assay employs L5178Y target cells labeled with ^51 Chromium and effector cells (sensitized lymphocytes) from the above-mentioned sources. Effector-target cell ratios will vary with different experimental conditions and may or may not include irradiated stimulator L5178Y cells. Results are expressed as % lysis of target cells based on ratio of cpm of test group over cpm of total release (maximum) both of which are corrected for spontaneous release of ^51 Cr. The assay can be performed as an 8 or 18 hour release assay.
Ten days later the resultant tumor nodule, about 1 cm in size, is surgically excised. If the excision was successful, no subcutaneous tumors develop at the site of implantation. […] These mice are considered to be in the tumor dormant state.
The effect of Cpd. 1 on cytotoxic lymphocyte (CTL) activity is measured using five DBA/2 mice in the early stage of the TDS, 10 days after challenge with viable L5178Y tumor cells. Six doses of Cpd. 1, 0.001, 0.01, 0.1, 1.0, 10, or 100 μg/ml or just buffer are added in 100 μl volumes to MLTC microculture wells containing washed spleen lymphocytes from the DBA/2 mice, effector, and L5178Y target cells at varying E/T ratios. The MLTC reaction is performed in the presence or absence of irradiated L5178Y stimulator cells.
Five DBA/2 mice in the early stage of the TDS, 10 days after challenge with viable L5178Y tumor cells were used to measure the effect of Cpd. 1 on CTL activity. Two doses of Cpd. 1, 10, or 100 μg/ml, or just buffer were added in 100 μl volumes to the MLTC microculture wells containing washed spleen lymphocytes from the DBA/2 mice, effector and L5178Y target cells at varying E/T ratios. The MLTC reaction was performed in the presence or absence of irradiated L5178Y stimulator cells.
DBA/2 mice in the early stage of TDS, […] with viable L5178Y tumor cells, were used to measure the effect of Cpd. 2 on CTL activity. Cpd. 2, 0.1, 1.0, 10 or 100 μg/ml, or just buffer was added in 100 μl volumes to MLTC microculture wells containing washed spleen lymphocytes from DBA/2 mice, effector, and L5178Y target cells at varying E/T ratios. The MLTC reaction was performed in the presence or absence of irradiated L5178Y stimulator cells.
An MLTC assay is performed to assess the CTL activity and tumor target cell specificity of Cpd. 1. Tumor dormant spleen cells and normal spleen cells of DBA/2 mice are used as effector cells. Irradiated L5178Y cells are used as stimulator cells. ^51 Cr-labeled L5178Y cells and FLC-745 cells are used as target cells. The effector/target ratios studied are 100:1, 30:1 and 10:1.

SMILES: Cc1ccc(C2(O)C(=O)OC3C(O)COC32O)o1.Cc1ccc(C2(O)C(=O)OC3C(O)COC32O)o1.O=C1CCC(=O)O1 (stereo not drawn) [Cpd. 1]
- % Lysis (0.001 μg/ml, E/T 10:1, TDS DBA/2, with stimulator cells): 16.7%
- % Lysis (0.001 μg/ml, E/T 10:1, TDS DBA/2, without stimulator cells): 3.9%
- % Lysis (0.001 μg/ml, E/T 30:1, TDS DBA/2, with stimulator cells): 40.2%
- % Lysis (0.001 μg/ml, E/T 30:1, TDS DBA/2, without stimulator cells): 12.2%
- % Lysis (0.001 μg/ml, E/T 100:1, TDS DBA/2, with stimulator cells): 71.1%
- % Lysis (0.001 μg/ml, E/T 100:1, TDS DBA/2, without stimulator cells): 23.4%
- % Lysis (0.01 μg/ml, E/T 10:1, TDS DBA/2, with stimulator cells): 20.6%
- % Lysis (0.01 μg/ml, E/T 10:1, TDS DBA/2, without stimulator cells): 3.5%
- % Lysis (0.01 μg/ml, E/T 30:1, TDS DBA/2, with stimulator cells): 55.8%
- % Lysis (0.01 μg/ml, E/T 30:1, TDS DBA/2, without stimulator cells): 15.7%
- % Lysis (0.01 μg/ml, E/T 100:1, TDS DBA/2, with stimulator cells): 77.1%
- % Lysis (0.01 μg/ml, E/T 100:1, TDS DBA/2, without stimulator cells): 26.0%
- % Lysis (0.1 μg/ml, E/T 10:1, TDS DBA/2, with stimulator cells): 20.2%
- % Lysis (0.1 μg/ml, E/T 10:1, TDS DBA/2, without stimulator cells): 3.5%
- % Lysis (0.1 μg/ml, E/T 30:1, TDS DBA/2, with stimulator cells): 51.0%
- % Lysis (0.1 μg/ml, E/T 30:1, TDS DBA/2, without stimulator cells): 14.8%
- % Lysis (0.1 μg/ml, E/T 100:1, TDS DBA/2, with stimulator cells): 79.0%
- % Lysis (0.1 μg/ml, E/T 100:1, TDS DBA/2, without stimulator cells): 31.6%
- % Lysis (1.0 μg/ml, E/T 10:1, TDS DBA/2, with stimulator cells): 15.6%
- % Lysis (1.0 μg/ml, E/T 10:1, TDS DBA/2, without stimulator cells): 4.6%
- % Lysis (1.0 μg/ml, E/T 30:1, TDS DBA/2, with stimulator cells): 46.0%
- % Lysis (1.0 μg/ml, E/T 30:1, TDS DBA/2, without stimulator cells): 20.0%
- % Lysis (1.0 μg/ml, E/T 100:1, TDS DBA/2, with stimulator cells): 71.5%
- % Lysis (1.0 μg/ml, E/T 100:1, TDS DBA/2, without stimulator cells): 40.1%
- % Lysis (10 μg/ml, E/T 6.25:1, TDS DBA/2, with stimulator cells): 60.5%
- % Lysis (10 μg/ml, E/T 6.25:1, TDS DBA/2, without stimulator cells): .7%
- % Lysis (10 μg/ml, E/T 10:1, TDS DBA/2, with stimulator cells): 15.9%
- % Lysis (10 μg/ml, E/T 10:1, TDS DBA/2, without stimulator cells): 4.6%
- % Lysis (10 μg/ml, E/T 12.5:1, TDS DBA/2, with stimulator cells): 67.1%
- % Lysis (10 μg/ml, E/T 12.5:1, TDS DBA/2, without stimulator cells): 6.9%
- % Lysis (10 μg/ml, E/T 25:1, TDS DBA/2, with stimulator cells): 72.0%
- % Lysis (10 μg/ml, E/T 25:1, TDS DBA/2, without stimulator cells): 8.1%
- % Lysis (10 μg/ml, E/T 30:1, TDS DBA/2, with stimulator cells): 42.0%
- % Lysis (10 μg/ml, E/T 30:1, TDS DBA/2, without stimulator cells): 16.8%
- % Lysis (10 μg/ml, E/T 50:1, TDS DBA/2, with stimulator cells): 75.7%
- % Lysis (10 μg/ml, E/T 50:1, TDS DBA/2, without stimulator cells): 12.8%
- % Lysis (10 μg/ml, E/T 100:1, TDS DBA/2, with stimulator cells): 74.3%
- % Lysis (10 μg/ml, E/T 100:1, TDS DBA/2, without stimulator cells): 36.3%
- % Lysis (100 μg/ml, E/T 6.25:1, TDS DBA/2, with stimulator cells): 56.3%
- % Lysis (100 μg/ml, E/T 6.25:1, TDS DBA/2, without stimulator cells): 6.1%
- % Lysis (100 μg/ml, E/T 10:1, TDS DBA/2, with stimulator cells): 21.2%
- % Lysis (100 μg/ml, E/T 10:1, TDS DBA/2, without stimulator cells): 8.6%
- % Lysis (100 μg/ml, E/T 12.5:1, TDS DBA/2, with stimulator cells): 75.7%
- % Lysis (100 μg/ml, E/T 12.5:1, TDS DBA/2, without stimulator cells): 11.1%
- % Lysis (100 μg/ml, E/T 25:1, TDS DBA/2, with stimulator cells): 79.8%
- % Lysis (100 μg/ml, E/T 25:1, TDS DBA/2, without stimulator cells): 16.6%
- % Lysis (100 μg/ml, E/T 30:1, TDS DBA/2, with stimulator cells): 54.2%
- % Lysis (100 μg/ml, E/T 30:1, TDS DBA/2, without stimulator cells): 18.7%
- % Lysis (100 μg/ml, E/T 50:1, TDS DBA/2, with stimulator cells): 71.6%
- % Lysis (100 μg/ml, E/T 50:1, TDS DBA/2, without stimulator cells): 21.8%
- % Lysis (100 μg/ml, E/T 100:1, TDS DBA/2, with stimulator cells): 87.3%
- % Lysis (100 μg/ml, E/T 100:1, TDS DBA/2, without stimulator cells): 42.0%
- % Lysis (E + D (TDS effector, no stimulator), E/T 10:1): 9.0%
- % Lysis (E + D (TDS effector, no stimulator), E/T 30:1): 29.8%
- % Lysis (E + D (TDS effector, no stimulator), E/T 100:1): 52.8%
- % Lysis (E + S + D (TDS effector, stimulator), E/T 10:1): 34.9%
- % Lysis (E + S + D (TDS effector, stimulator), E/T 30:1): 69.2%
- % Lysis (E + S + D (TDS effector, stimulator), E/T 100:1): 82.3%
- % Lysis (N + D (normal effector, no stimulator), E/T 10:1): -10.3%
- % Lysis (N + D (normal effector, no stimulator), E/T 30:1): -11.4%
- % Lysis (N + D (normal effector, no stimulator), E/T 100:1): -12.4%
- % Lysis (N + S + D (normal effector, stimulator), E/T 10:1): -10.9%
- % Lysis (N + S + D (normal effector, stimulator), E/T 30:1): -9.7%
- % Lysis (N + S + D (normal effector, stimulator), E/T 100:1): -9.5%
- CTL activity of effector cells (in the presence of stimulator cells (Example 28)): significant specific enhancement of CTL activity
- CTL activity (several concentrations, any E/T ratio, with or without stimulator cells, TDS): significant increase in CTL activity
